# Columns and labels:
# Assay type in all cases: in vivo
# [1] = test system: blackgrass (Alopecurus myosuroides); experiment: Test A postemergence greenhouse test
# Description: (§1) Seeds of plant species selected from barnyardgrass (Echinochloa crus-galli), kochia (Kochia scoparia), ragweed (common ragweed, Ambrosia elatior), ryegrass, Italian (Lolium multiflorum), foxtail, giant (Setaria faberii), foxtail, green (Setaria viridis) and pigweed (Amaranthus retroflexus) were planted into a blend of loam soil and sand and treated preemergence with a directed soil spray using test chemicals formulated in a non-phytotoxic solvent mixture which included a surfactant.
# (§2) At the same time, plants selected from these weed species and also wheat (Triticum aestivum), corn (Zea mays), blackgrass (Alopecurus myosuroides) and galium (catchweed bedstraw, Galium aparine) were planted in pots containing the same blend of loam soil and sand and treated with postemergence applications of test chemicals formulated in the same manner. Plants ranged in height from 2 to 10 cm and were in the one- to two-leaf stage for the postemergence treatment. Treated plants and untreated controls were maintained in a greenhouse for approximately 10 d, after which time all treated plants were compared to untreated controls and visually evaluated for injury. Plant response ratings, summarized in Table A, are based on a 0 to 100 scale where 0 is no effect and 100 is complete control. A dash (-) response means no test result.
# [2] = test system: corn (Zea mays); experiment: Test A postemergence greenhouse test
# Description: as §1, §2
# [3] = test system: galium (catchweed bedstraw, Galium aparine); experiment: Test A postemergence greenhouse test
# Description: as §1, §2
# [4] = test system: wheat (Triticum aestivum); experiment: Test A postemergence greenhouse test
# Description: as §1, §2
# [5] = test system: barnyardgrass (Echinochloa crus-galli); experiment: Test B flooded paddy test; settings: Flood, 250 g ai/ha
# Description: (§3) Plant species in the flooded paddy test selected from rice (Oryza sativa), sedge, umbrella (small-flower umbrella sedge, Cyperus difformis), duck salad (Heteranthera limosa) and barnyardgrass (Echinochloa crus-galli) were grown to the 2-leaf stage for testing. At time of treatment, test pots were flooded to 3 cm above the soil surface, treated by application of test compounds directly to the paddy water, and then maintained at that water depth for the duration of the test. Treated plants and controls were maintained in a greenhouse for 13 to 15 d, after which time all species were compared to controls and visually evaluated. Plant response ratings, summarized in Table B, are based on a scale of 0 to 100 where 0 is no effect and 100 is complete control. A dash (-) response means no test result.
# [6] = test system: duck salad (Heteranthera limosa); experiment: Test B flooded paddy test; settings: Flood, 250 g ai/ha, Ducksalad
# Description: as §3
# [7] = test system: rice (Oryza sativa); experiment: Test B flooded paddy test; settings: Flood, 250 g ai/ha
# Description: as §3
# [8] = test system: sedge, umbrella (small-flower umbrella sedge, Cyperus difformis); experiment: Test B flooded paddy test; settings: Flood, 250 g ai/ha
# Description: as §3
# [9] = test system: barley, winter (Hordeum vulgare); experiment: Test D pre-/postemergence controlled growth environment test
# Description: (§4) Seeds of plant species selected from blackgrass (Alopecurus myosuroides), galium (catchweed bedstraw, Galium aparine), kochia (Kochia scoparia), oilseed rape (Brassica napus), barley, spring (Hordeum vulgare), wheat, spring (Triticum aestivum), oat, wild (Avena fatua), barley, winter (Hordeum vulgare) and wheat, winter (Triticum aestivum) were planted into a silt loam soil and treated preemergence with test chemicals formulated in a non-phytotoxic solvent mixture which included a surfactant.
# (§5) At the same time, plants selected from these crop and weed species and also bluegrass (annual bluegrass, Poa annua), canarygrass (littleseed canarygrass, Phalaris minor), chickweed (common chickweed, Stellaria media), bromegrass, downy (downy bromegrass, Bromus tectorum), field poppy (Papaver rhoeas), field violet (Viola arvensis), foxtail, green (Setaria viridis), deadnettle (henbit deadnettle, Lamium amplexicaule), ryegrass, Italian (Lolium multiflorum), lambsquarters (Chenopodium album), pigweed (Amaranthus retroflexus), chamomile (scentless chamomile, Matricaria inodora), Russian thistle (Salsola kali), speedwell (bird's-eye speedwell, Veronica persica), buckwheat, wild (Polygonum convolvulus), mustard, wild (Sinapis arvensis), radish, wild (Raphanus raphanistrum), windgrass (Apera spica-venti), geranium, cutleaf (Geranium dissectum) and Canada thistle (Cirsium arvense) were planted in pots containing Redi-Earth® planting medium (Scotts Company, 14111 Scottslawn Road, Marysville, Ohio 43041) comprising spaghnum peat moss, vermiculite, wetting agent and starter nutrients and treated with postemergence applications of the test chemicals formulated in the same manner. Plants ranged in height from 2 to 18 cm (1- to 4-leaf stage). Treated plants and controls were maintained in a controlled growth environment for 14 to 21 d after which time all species were compared to controls and visually evaluated. Plant response ratings, summarized in Table D, are based on a scale of 0 to 100 where 0 is no effect and 100 is complete control. A dash (-) response means no test result.
# [10] = test system: oilseed rape (Brassica napus); experiment: as above
# Description: as §4, §5
# [11] = test system: barnyardgrass (Echinochloa crus-galli); experiment: Test C flooded paddy test; settings: Flood, scale 0 to 100
# Description: as §3, with “consisted of” for “selected from”, “(transplanted and water seeded, Oryza” for “(Oryza”, “ducksalad” for “duck salad”, “limosa), Bulrush, Japanese (Scirpus juncoides)” for “limosa)”, “crus-galli)” for “crus-galli) were”, “C” for “B,”
# [12] = test system: ducksalad (Heteranthera limosa); experiment: Test C flooded paddy test; settings: Flood, scale 0 to 100
# Description: as §3, with “consisted of” for “selected from”, “(transplanted and water seeded, Oryza” for “(Oryza”, “ducksalad” for “duck salad”, “limosa), Bulrush, Japanese (Scirpus juncoides)” for “limosa)”, “crus-galli)” for “crus-galli) were”, “C” for “B,”
# [13] = test system: rice (transplanted and water seeded, Oryza sativa); experiment: Test C flooded paddy test; settings: Flood, scale 0 to 100
# Description: as §3, with “consisted of” for “selected from”, “(transplanted and water seeded, Oryza” for “(Oryza”, “ducksalad” for “duck salad”, “limosa), Bulrush, Japanese (Scirpus juncoides)” for “limosa)”, “crus-galli)” for “crus-galli) were”, “C” for “B,”
# [14] = test system: sedge, umbrella (small-flower umbrella sedge, Cyperus difformis); experiment: Test C flooded paddy test; settings: Flood, scale 0 to 100
# Description: as §3, with “consisted of” for “selected from”, “(transplanted and water seeded, Oryza” for “(Oryza”, “ducksalad” for “duck salad”, “limosa), Bulrush, Japanese (Scirpus juncoides)” for “limosa)”, “crus-galli)” for “crus-galli) were”, “C” for “B,”
compound,measurement,setting,value
Cc1ccc2ccc(Cl)cc2c1-c1c(O)c(Cl)nn(C)c1=O [Cpd. No. 22],Plant response rating (0 to 100 scale),[1]; 31 g ai/ha,70
same,Plant response rating (0 to 100 scale),[1]; 125 g ai/ha,100
same,Plant response rating (0 to 100 scale),[2]; 31 g ai/ha,0
same,Plant response rating (0 to 100 scale),[2]; 125 g ai/ha,10
same,Plant response rating (0 to 100 scale),[3]; 31 g ai/ha,100
same,Plant response rating (0 to 100 scale),[3]; 125 g ai/ha,100
same,Plant response rating (0 to 100 scale),[4]; 31 g ai/ha,100
same,Plant response rating (0 to 100 scale),[4]; 125 g ai/ha,100
same,Plant response rating (0 to 100 scale),[5],40
same,Plant response rating (0 to 100 scale),[6],90
same,Plant response rating (0 to 100 scale),[7],60
same,Plant response rating (0 to 100 scale),[8],85
same,"Plant response rating, Barley, Winter","[9]; Postemergence, 31 g ai/ha",47
same,"Plant response rating, Barley, Winter","[9]; Postemergence, 62 g ai/ha",73
same,"Plant response rating, Oilseed Rape","[10]; Postemergence, 31 g ai/ha",73
same,"Plant response rating, Oilseed Rape","[10]; Postemergence, 62 g ai/ha",90
Cc1cc(Cl)c2ccccc2c1-c1c(O)c(Cl)nn(C)c1=O [Cpd. No. 65],Plant response rating (0 to 100 scale),[1]; 31 g ai/ha,90
same,Plant response rating (0 to 100 scale),[1]; 125 g ai/ha,100
same,Plant response rating (0 to 100 scale),[2]; 31 g ai/ha,30
same,Plant response rating (0 to 100 scale),[2]; 125 g ai/ha,50
same,Plant response rating (0 to 100 scale),[3]; 31 g ai/ha,100
same,Plant response rating (0 to 100 scale),[3]; 125 g ai/ha,100
same,Plant response rating (0 to 100 scale),[4]; 31 g ai/ha,80
same,Plant response rating (0 to 100 scale),[4]; 125 g ai/ha,90
same,Plant response rating (0 to 100 scale),[5],40
same,Plant response rating (0 to 100 scale),[6],80
same,Plant response rating (0 to 100 scale),[7],20
same,Plant response rating (0 to 100 scale),[8],90
same,"Plant response rating, Barnyardgrass",[11]; 31 g ai/ha,0
same,"Plant response rating, Barnyardgrass",[11]; 62 g ai/ha,10
same,"Plant response rating, Barnyardgrass",[11]; 125 g ai/ha,30
same,"Plant response rating, Barnyardgrass",[11]; 250 g ai/ha,100
same,"Plant response rating, Ducksalad",[12]; 31 g ai/ha,95
same,"Plant response rating, Ducksalad",[12]; 62 g ai/ha,100
same,"Plant response rating, Ducksalad",[12]; 125 g ai/ha,100
same,"Plant response rating, Ducksalad",[12]; 250 g ai/ha,100
same,"Plant response rating, Rice, Transplanted",[13]; 31 g ai/ha,0
same,"Plant response rating, Rice, Transplanted",[13]; 62 g ai/ha,0
same,"Plant response rating, Rice, Transplanted",[13]; 125 g ai/ha,20
same,"Plant response rating, Rice, Water Seeded",[13]; 125 g ai/ha,10
same,"Plant response rating, Rice, Transplanted",[13]; 250 g ai/ha,70
same,"Plant response rating, Sedge, Umbrella",[14]; 31 g ai/ha,95
same,"Plant response rating, Sedge, Umbrella",[14]; 62 g ai/ha,100
same,"Plant response rating, Sedge, Umbrella",[14]; 125 g ai/ha,100
same,"Plant response rating, Sedge, Umbrella",[14]; 250 g ai/ha,100
same,"Plant response rating, Barley, Winter","[9]; Postemergence, 16 g ai/ha",60
same,"Plant response rating, Barley, Winter","[9]; Postemergence, 31 g ai/ha",72
same,"Plant response rating, Barley, Winter","[9]; Postemergence, 62 g ai/ha",83
same,"Plant response rating, Barley, Winter","[9]; Postemergence, 125 g ai/ha",90
same,"Plant response rating, Barley, Winter","[9]; Preemergence, 16 g ai/ha",0
same,"Plant response rating, Barley, Winter","[9]; Preemergence, 31 g ai/ha",3
same,"Plant response rating, Barley, Winter","[9]; Preemergence, 62 g ai/ha",7
same,"Plant response rating, Barley, Winter","[9]; Preemergence, 125 g ai/ha",23
same,"Plant response rating, Oilseed Rape","[10]; Postemergence, 16 g ai/ha",85
same,"Plant response rating, Oilseed Rape","[10]; Postemergence, 31 g ai/ha",87
same,"Plant response rating, Oilseed Rape","[10]; Postemergence, 62 g ai/ha",90
same,"Plant response rating, Oilseed Rape","[10]; Postemergence, 125 g ai/ha",100
same,"Plant response rating, Oilseed Rape","[10]; Preemergence, 16 g ai/ha",0
same,"Plant response rating, Oilseed Rape","[10]; Preemergence, 31 g ai/ha",18
same,"Plant response rating, Oilseed Rape","[10]; Preemergence, 62 g ai/ha",85
same,"Plant response rating, Oilseed Rape","[10]; Preemergence, 125 g ai/ha",100
